Measured values published in patent US10435399B2, “HDAC6 inhibitory heterocyclic compound” (TAKEDA PHARMACEUTICAL COMPANY LIMITED, priority 2017, dated 2019).

Molecular target: T1, HDAC6 enzyme (Homo sapiens, UniProt Q9UBN7)
T1 construct: transducing full length HDAC6 gene into Sf-9 insect cells; GST; purchased SignalChem; host or cells: Sf-9 insect cells
T1 sequence (Q9UBN7 1-1215): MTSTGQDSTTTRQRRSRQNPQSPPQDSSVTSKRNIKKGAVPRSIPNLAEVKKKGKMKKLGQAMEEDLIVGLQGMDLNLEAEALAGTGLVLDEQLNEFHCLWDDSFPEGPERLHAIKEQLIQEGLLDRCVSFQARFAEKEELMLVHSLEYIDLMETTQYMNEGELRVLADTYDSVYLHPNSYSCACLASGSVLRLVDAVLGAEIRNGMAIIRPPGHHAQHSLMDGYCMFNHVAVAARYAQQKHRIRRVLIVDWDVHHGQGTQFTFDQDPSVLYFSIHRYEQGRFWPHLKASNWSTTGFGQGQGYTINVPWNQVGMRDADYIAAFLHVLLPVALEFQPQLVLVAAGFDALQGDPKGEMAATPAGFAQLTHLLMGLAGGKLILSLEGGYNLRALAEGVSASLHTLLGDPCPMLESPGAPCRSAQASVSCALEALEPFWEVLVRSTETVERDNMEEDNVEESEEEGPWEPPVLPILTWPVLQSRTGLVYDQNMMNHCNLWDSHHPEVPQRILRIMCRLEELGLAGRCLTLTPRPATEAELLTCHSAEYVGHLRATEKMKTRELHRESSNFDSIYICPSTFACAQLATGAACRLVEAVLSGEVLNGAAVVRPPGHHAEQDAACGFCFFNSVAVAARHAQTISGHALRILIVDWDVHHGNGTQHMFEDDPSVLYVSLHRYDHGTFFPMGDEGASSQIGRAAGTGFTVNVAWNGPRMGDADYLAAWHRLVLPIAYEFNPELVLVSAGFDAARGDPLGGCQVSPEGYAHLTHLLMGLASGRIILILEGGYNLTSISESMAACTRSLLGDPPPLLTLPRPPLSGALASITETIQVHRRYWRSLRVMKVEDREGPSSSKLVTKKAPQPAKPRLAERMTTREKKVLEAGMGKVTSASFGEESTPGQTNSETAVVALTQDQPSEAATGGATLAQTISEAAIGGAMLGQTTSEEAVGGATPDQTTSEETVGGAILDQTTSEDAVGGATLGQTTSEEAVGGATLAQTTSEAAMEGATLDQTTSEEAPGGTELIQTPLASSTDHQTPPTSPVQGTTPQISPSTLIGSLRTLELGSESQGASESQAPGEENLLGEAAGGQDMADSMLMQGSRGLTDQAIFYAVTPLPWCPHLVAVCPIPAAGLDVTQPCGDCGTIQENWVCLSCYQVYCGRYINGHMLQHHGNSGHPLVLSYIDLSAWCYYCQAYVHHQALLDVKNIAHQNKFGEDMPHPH
Experiment: HDAC6 enzyme inhibitory activity (HDAC-Glo I/II Assay kit)
Format: biochemical
Conditions: 10 μM; wells without enzyme = 100% inhibition
Summary of the method: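 Test compound is preincubated 60 min at RT with full-length insect-cell HDAC6 in Tris-HCl pH 7.5 with 135 mM NaCl and 1 mM MgCl2. A 20 min room-temperature HDAC-Glo reaction follows, with luminescent read-out.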

Row | SMILES | HDAC6 inhibitory rate (%) (10 μM)
1 | O=C(N[C@@H]1CCCC[C@H]1N1Cc2ccc(-c3nnc(C(F)F)o3)cc2C1=O)C1CC12CCC2 (stereo partly drawn) [Example 119, N-((1R,2R)-2-(6-(5-(difluoromethyl)-1,3,4-oxadiazol-2-yl)-1-oxo-1,3-dihydro-2H-isoindol-2-yl)cyclohexyl)spiro[2.3]hexane-1-carboxamide (optical isomer)] | 100%
2 | O=C(N[C@@H]1CCCC[C@H]1N1Cc2ccc(-c3nnc(C(F)F)o3)cc2C1=O)C1CC1(F)F (stereo partly drawn) [Example 121, N-((1R,2R)-2-(6-(5-(difluoromethyl)-1,3,4-oxadiazol-2-yl)-1-oxo-1,3-dihydro-2H-isoindol-2-yl)cyclohexyl)-2,2-difluorocyclopropanecarboxamide (optical isomer)] | 100%

Same assay, conditions: 10 μM; wells without enzyme = 100% inhibition; read-out: HDAC6 inhibitory rate (%) (10 μM)

Row | SMILES | inhibition at 10 µM
3 | CCCCCCC(=O)N[C@@H]1CCCC[C@H]1N1Cc2ccc(-c3nnc(C(F)F)o3)cc2C1=O [Example 107, N-((1R,2R)-2-(6-(5-(difluoromethyl)-1,3,4-oxadiazol-2-yl)-1-oxo-1,3-dihydro-2H-isoindol-2-yl)cyclohexyl)heptanamide] | 102%
4 | O=C1c2cc(-c3nnc(C(F)F)o3)ccc2CN1[C@@H]1CCCC[C@H]1NC(=O)C1(c2ccc(F)cc2)CC1 [Example 108, N-((1R,2R)-2-(6-(5-(difluoromethyl)-1,3,4-oxadiazol-2-yl)-1-oxo-1,3-dihydro-2H-isoindol-2-yl)cyclohexyl)-1-(4-fluorophenyl)cyclopropanecarboxamide] | 100%
5 | O=C1c2cc(-c3nnc(C(F)F)o3)ccc2CN1[C@@H]1CCCC[C@H]1NC(=O)C1(c2ccc(F)cc2)CCC1 [Example 109, N-((1R,2R)-2-(6-(5-(difluoromethyl)-1,3,4-oxadiazol-2-yl)-1-oxo-1,3-dihydro-2H-isoindol-2-yl)cyclohexyl)-1-(4-fluorophenyl)cyclobutanecarboxamide] | 97%
6 | O=C(CC1CCC1)N[C@@H]1CCCC[C@H]1N1Cc2ccc(-c3nnc(C(F)F)o3)cc2C1=O [Example 110, 2-cyclobutyl-N-((1R,2R)-2-(6-(5-(difluoromethyl)-1,3,4-oxadiazol-2-yl)-1-oxo-1,3-dihydro-2H-isoindol-2-yl)cyclohexyl)acetamide] | 98%
7 | O=C1c2cc(-c3nnc(C(F)F)o3)ccc2CN1c1ccccc1Br [Example 112, 2-(2-bromophenyl)-6-(5-(difluoromethyl)-1,3,4-oxadiazol-2-yl)isoindolin-1-one] | 95%
8 | O=C(N[C@@H]1CCCC[C@H]1N1Cc2ccc(-c3nnc(C(F)F)o3)cc2C1=O)[C@H]1CCCO1 [Example 113, (2R)-N-((1R,2R)-2-(6-(5-(difluoromethyl)-1,3,4-oxadiazol-2-yl)-1-oxo-1,3-dihydro-2H-isoindol-2-yl)cyclohexyl)tetrahydrofuran-2-carboxamide] | 102%
9 | O=C(N[C@@H]1CCCC[C@H]1N1Cc2ccc(-c3nnc(C(F)F)o3)cc2C1=O)[C@H]1CCOC1 [Example 114, (3S)-N-((1R,2R)-2-(6-(5-(difluoromethyl)-1,3,4-oxadiazol-2-yl)-1-oxo-1,3-dihydro-2H-isoindol-2-yl)cyclohexyl)tetrahydrofuran-3-carboxamide] | 100%
10 | C[C@H](C1CC1)N1Cc2ccc(-c3nnc(C(F)F)o3)cc2C1=O [Example 115, 2-((1R)-1-cyclopropylethyl)-6-(5-(difluoromethyl)-1,3,4-oxadiazol-2-yl)isoindolin-1-one] | 96%
11 | C[C@@H](C1CC1)N1Cc2ccc(-c3nnc(C(F)F)o3)cc2C1=O [Example 116, 2-((1S)-1-cyclopropylethyl)-6-(5-(difluoromethyl)-1,3,4-oxadiazol-2-yl)isoindolin-1-one] | 98%
12 | CCCCO[C@H]1CC[C@H](N2Cc3ccc(-c4nnc(C(F)F)o4)cc3C2=O)CC1 [Example 117, 2-(trans-4-butoxycyclohexyl)-6-(5-(difluoromethyl)-1,3,4-oxadiazol-2-yl)isoindolin-1-one] | 96%
13 | O=C1c2cc(-c3nnc(C(F)F)o3)ccc2CN1C1CCOCC1 [Example 122, 6-(5-(difluoromethyl)-1,3,4-oxadiazol-2-yl)-2-(tetrahydro-2H-pyran-4-yl)isoindolin-1-one] | 95%
14 | O=C1c2cc(-c3nnc(C(F)F)o3)ccc2CN1[C@@H]1CCCC[C@H]1n1ccnn1 [Example 123] | 101%
15 | O=C1CCCN1[C@@H]1CCCC[C@H]1N1Cc2c(F)cc(-c3nnc(C(F)F)o3)cc2C1=O [Example 124, 6-(5-(difluoromethyl)-1,3,4-oxadiazol-2-yl)-4-fluoro-2-((1R,2R)-2-(2-oxopyrrolidin-1-yl)cyclohexyl)isoindolin-1-one] | 99%
16 | CC(C)(C)OC(=O)N1CC[C@@H](N2Cc3ccc(-c4nnc(C(F)F)o4)cc3C2=O)[C@@H](c2ccccc2)C1 [Example 125, tert-butyl (3S,4R)-4-(6-(5-(difluoromethyl)-1,3,4-oxadiazol-2-yl)-1-oxo-1,3-dihydro-2H-isoindol-2-yl)-3-phenylpiperidine-1-carboxylate] | 98%
17 | O=C1c2cc(-c3nnc(C(F)F)o3)ccc2CN1[C@@H]1CCNC[C@@H]1c1ccccc1 [Example 126, 6-(5-(difluoromethyl)-1,3,4-oxadiazol-2-yl)-2-((3S,4R)-3-phenylpiperidin-4-yl)isoindolin-1-one] | 100%
18 | CC(=O)N1CC[C@@H](N2Cc3ccc(-c4nnc(C(F)F)o4)cc3C2=O)[C@@H](c2ccccc2)C1 [Example 127, 2-((3S,4R)-1-acetyl-3-phenylpiperidin-4-yl)-6-(5-(difluoromethyl)-1,3,4-oxadiazol-2-yl)isoindolin-1-one] | 100%
19 | COC(=O)N1CC[C@@H](N2Cc3ccc(-c4nnc(C(F)F)o4)cc3C2=O)[C@@H](c2ccccc2)C1 [Example 128, methyl (3S,4R)-4-(6-(5-(difluoromethyl)-1,3,4-oxadiazol-2-yl)-1-oxo-1,3-dihydro-2H-isoindol-2-yl)-3-phenylpiperidine-1-carboxylate] | 100%
20 | O=C1c2cc(-c3nnc(C(F)F)o3)ccc2CN1c1ccccc1-c1ccccc1 [Example 129, 2-(biphenyl-2-yl)-6-(5-(difluoromethyl)-1,3,4-oxadiazol-2-yl)isoindolin-1-one] | 100%
21 | CCOC(=O)N1CCC(N2Cc3ccc(-c4nnc(C(F)F)o4)cc3C2=O)CC1 [Example 130, ethyl 4-(6-(5-(difluoromethyl)-1,3,4-oxadiazol-2-yl)-1-oxo-1,3-dihydro-2H-isoindol-2-yl)piperidine-1-carboxylate] | 93%
22 | O=C(N[C@@H]1CCCC[C@H]1N1Cc2ccc(-c3nnc(C(F)F)o3)cc2C1=O)OCC(F)F [Example 131, 2,2-difluoroethyl ((1R,2R)-2-(6-(5-(difluoromethyl)-1,3,4-oxadiazol-2-yl)-1-oxo-1,3-dihydro-2H-isoindol-2-yl)cyclohexyl)carbamate] | 99%
23 | O=C(N[C@@H]1CCCC[C@H]1N1Cc2ccc(-c3nnc(C(F)F)o3)cc2C1=O)OCCC(F)(F)F [Example 132, 3,3,3-trifluoropropyl ((1R,2R)-2-(6-(5-(difluoromethyl)-1,3,4-oxadiazol-2-yl)-1-oxo-1,3-dihydro-2H-isoindol-2-yl)cyclohexyl)carbamate] | 94%
24 | O=C1c2cc(-c3nnc(C(F)F)o3)ccc2CN1c1ccccc1-c1ccc(C(F)(F)F)cc1 [Example 133, 6-(5-(difluoromethyl)-1,3,4-oxadiazol-2-yl)-2-(4′-(trifluoromethyl)biphenyl-2-yl)isoindolin-1-one] | 93%
25 | COc1ccc(-c2ccccc2N2Cc3ccc(-c4nnc(C(F)F)o4)cc3C2=O)cc1 [Example 134, 6-(5-(difluoromethyl)-1,3,4-oxadiazol-2-yl)-2-(4′-methoxybiphenyl-2-yl)isoindolin-1-one] | 101%
26 | O=C1c2cc(-c3nnc(C(F)F)o3)cc(F)c2CN1Cc1ccccc1 [Example 136, 2-benzyl-6-(5-(difluoromethyl)-1,3,4-oxadiazol-2-yl)-4-fluoroisoindolin-1-one] | 99%
